Tests used:
[1] = molecular target: T1, Kv1.5 (Homo sapiens, UniProt P22460); assay: Whole-cell patch-clamp, Kv1.5 currents in stably transfected CHO cells; format: cell-based; conditions: summary statement
T1 construct: expressed in transfected cells; host or cells: CHO (ATCC CCL-61), stably transfected; selection with Hygromycin
Method: (§1) [drawing 92] i.e. 4-[5-[3-Chloro-5-(trifluoromethoxy) phenyl]-1-(pyridin-3-yl)-1H-pyrazol-3-yl]-5,6-dihydro-7H-pyrrolo[3,4-d]pyrimidin-7-one, was tested for its effects on human Nav1.5, Cav1.2, Kv1.5, and HCN4 currents recorded from stably transfected CHO cells. The effect of four concentrations of this compound on these currents was investigated.
(§2) The whole-cell patch-clamp technique was used to investigate the effect of Compound A on the currents of Nav1.5, Kv1.5, Cav1.2 and HCN4 channels, expressed in CHO cells (ATCC, CCL-61). Compound A was tested at concentrations of 200 nM, 600 nM, 2000 nM and 6000 nM. […]
(§3) The 35 mm culture dishes upon which cells were seeded at a density allowing single cells to be recorded were placed on the dish holder of the microscope and continuously perfused (at approximately 1 mL/min) with the bath solution described in section 4.7. […]
(§4) As soon as a stable seal could be established outward tail currents were measured upon pulses described in the Table below: […]
(§5) Values in Ampere (A) of the peak amplitudes of outward tail currents were generated for each voltage step. […] The recorded current amplitudes at the steady state level of current inhibition were compared to those from control conditions measured in the pre-treatment phase of the same cell. The amount of current block was calculated as percentage of control. […]

[2] = molecular target: T2, Cav1.2 (Homo sapiens, UniProt Q13936); assay: Whole-cell patch-clamp, Cav1.2 currents in stably transfected CHO cells; format: cell-based; conditions: summary statement
T2 construct: expressed in transfected cells; host or cells: CHO (ATCC CCL-61), stably transfected; selection with Hygromycin, Geneticin and Zeocin
Method: as §1, §2, §3, §4, §5

[3] = Stability of compound A in solution; format: physicochemical
Method: The compound stock solutions were stored at 19°C to 30°C (room temperature). Test solutions were prepared freshly every day. Test solutions were prepared shortly before experimentation.
The Compound A stock solutions were prepared freshly every day of experimentation. Application of Compound A to the CHO cells was completed within one day. During this period, there was no observation indicating any instability of Compound A solved in vehicle. The effects observed on Nav1.5, Kv1.5, Cav1.2 and HCN4 channels of the Compound A dose formulations analyzed remained stable over several hours at room temperature.

[4] = 10-day dose-range-finding study in dogs; format: in vivo
Method: For the dog study, single dose data are available at 3, 30 and 100 mg/kg and repeated dose data (10 days of treatment) are available at 30, 100 and 2 x 50 mg/kg. At a single dose of 30 mg/kg, no further increase in exposure or Cmax is apparent. In the 10-day DRF study (LPT Study No. 31586) it was investigated whether after multiple dosing any accumulation would be apparent and therefore dose levels of 30 and 100 mg/kg were selected in this study. In addition, the highest daily dose (i.e. 100 mg/kg) was also administered as 50 mg/kg twice daily (8-h interval) to investigate possible beneficial effects of BID dosing on overall exposure.

T1 sequence (P22460 whole entry): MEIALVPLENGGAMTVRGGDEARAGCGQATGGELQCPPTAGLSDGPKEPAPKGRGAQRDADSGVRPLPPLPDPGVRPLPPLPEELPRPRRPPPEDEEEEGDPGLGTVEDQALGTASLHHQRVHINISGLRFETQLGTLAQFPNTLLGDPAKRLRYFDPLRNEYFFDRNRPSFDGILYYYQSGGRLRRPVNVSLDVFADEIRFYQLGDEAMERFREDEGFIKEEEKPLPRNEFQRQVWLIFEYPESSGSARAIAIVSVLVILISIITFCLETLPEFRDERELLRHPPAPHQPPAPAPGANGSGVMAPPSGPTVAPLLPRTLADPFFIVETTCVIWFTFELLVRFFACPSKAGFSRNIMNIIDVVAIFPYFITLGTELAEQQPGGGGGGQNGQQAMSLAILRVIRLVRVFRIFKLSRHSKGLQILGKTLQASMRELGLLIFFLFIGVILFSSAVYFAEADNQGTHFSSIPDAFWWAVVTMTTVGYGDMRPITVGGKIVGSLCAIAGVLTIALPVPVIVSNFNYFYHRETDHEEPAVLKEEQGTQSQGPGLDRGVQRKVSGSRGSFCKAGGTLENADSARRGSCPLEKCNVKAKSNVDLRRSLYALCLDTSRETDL
T2 sequence (Q13936 whole entry): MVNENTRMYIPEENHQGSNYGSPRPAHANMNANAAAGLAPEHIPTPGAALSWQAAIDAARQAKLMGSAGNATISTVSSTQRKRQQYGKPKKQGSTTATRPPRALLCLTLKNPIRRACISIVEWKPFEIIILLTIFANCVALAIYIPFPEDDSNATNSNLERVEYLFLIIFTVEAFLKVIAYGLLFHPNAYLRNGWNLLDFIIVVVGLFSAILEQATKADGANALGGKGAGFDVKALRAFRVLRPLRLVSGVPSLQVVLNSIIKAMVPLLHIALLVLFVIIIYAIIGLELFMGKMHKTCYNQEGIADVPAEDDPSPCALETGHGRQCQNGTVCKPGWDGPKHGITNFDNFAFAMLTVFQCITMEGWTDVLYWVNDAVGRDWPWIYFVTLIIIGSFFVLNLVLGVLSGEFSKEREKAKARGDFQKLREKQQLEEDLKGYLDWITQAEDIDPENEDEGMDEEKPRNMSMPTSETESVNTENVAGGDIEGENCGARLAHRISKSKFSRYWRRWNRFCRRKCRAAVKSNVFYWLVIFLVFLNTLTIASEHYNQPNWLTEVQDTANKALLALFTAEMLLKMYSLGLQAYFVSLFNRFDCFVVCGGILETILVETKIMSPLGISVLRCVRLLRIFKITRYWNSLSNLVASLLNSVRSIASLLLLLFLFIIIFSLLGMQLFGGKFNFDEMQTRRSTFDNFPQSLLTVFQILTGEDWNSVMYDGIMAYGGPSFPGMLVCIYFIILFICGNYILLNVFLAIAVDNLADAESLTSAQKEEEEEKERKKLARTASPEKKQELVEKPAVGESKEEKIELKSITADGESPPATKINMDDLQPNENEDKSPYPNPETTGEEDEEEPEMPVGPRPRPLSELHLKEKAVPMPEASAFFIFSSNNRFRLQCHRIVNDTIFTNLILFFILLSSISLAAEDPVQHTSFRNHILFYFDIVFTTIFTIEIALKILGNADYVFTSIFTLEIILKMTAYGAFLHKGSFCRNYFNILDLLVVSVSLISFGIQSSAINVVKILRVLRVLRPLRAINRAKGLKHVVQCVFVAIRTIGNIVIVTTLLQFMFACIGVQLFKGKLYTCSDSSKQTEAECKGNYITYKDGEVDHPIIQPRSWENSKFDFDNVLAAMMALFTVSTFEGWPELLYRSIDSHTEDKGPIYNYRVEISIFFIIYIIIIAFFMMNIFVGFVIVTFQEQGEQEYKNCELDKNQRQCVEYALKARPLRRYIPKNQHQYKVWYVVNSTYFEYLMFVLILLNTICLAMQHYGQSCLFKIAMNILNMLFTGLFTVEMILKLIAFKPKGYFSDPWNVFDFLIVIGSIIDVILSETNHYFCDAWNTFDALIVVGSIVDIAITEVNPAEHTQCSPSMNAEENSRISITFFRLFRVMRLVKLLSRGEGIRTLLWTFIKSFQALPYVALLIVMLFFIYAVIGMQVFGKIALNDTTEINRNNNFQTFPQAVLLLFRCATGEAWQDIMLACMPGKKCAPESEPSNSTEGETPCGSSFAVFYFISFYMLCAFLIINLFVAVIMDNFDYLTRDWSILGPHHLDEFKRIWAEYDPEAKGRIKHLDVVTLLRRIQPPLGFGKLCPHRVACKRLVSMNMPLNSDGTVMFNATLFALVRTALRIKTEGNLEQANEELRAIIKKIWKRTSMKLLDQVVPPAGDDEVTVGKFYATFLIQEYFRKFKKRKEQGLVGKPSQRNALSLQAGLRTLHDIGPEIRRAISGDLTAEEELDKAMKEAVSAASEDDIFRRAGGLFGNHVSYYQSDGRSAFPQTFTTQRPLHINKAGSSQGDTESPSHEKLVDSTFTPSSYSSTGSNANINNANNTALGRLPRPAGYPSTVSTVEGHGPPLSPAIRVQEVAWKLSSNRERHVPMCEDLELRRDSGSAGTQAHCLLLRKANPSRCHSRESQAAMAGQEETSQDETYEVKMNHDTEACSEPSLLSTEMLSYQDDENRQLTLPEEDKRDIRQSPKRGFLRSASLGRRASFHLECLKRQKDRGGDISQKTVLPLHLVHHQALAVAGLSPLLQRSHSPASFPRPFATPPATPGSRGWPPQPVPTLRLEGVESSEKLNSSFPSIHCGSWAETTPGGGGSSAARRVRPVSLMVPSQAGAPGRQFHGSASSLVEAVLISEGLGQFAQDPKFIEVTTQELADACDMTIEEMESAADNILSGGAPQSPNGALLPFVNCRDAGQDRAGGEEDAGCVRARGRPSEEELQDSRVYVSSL
T2 sequence (Q08289 whole entry partner): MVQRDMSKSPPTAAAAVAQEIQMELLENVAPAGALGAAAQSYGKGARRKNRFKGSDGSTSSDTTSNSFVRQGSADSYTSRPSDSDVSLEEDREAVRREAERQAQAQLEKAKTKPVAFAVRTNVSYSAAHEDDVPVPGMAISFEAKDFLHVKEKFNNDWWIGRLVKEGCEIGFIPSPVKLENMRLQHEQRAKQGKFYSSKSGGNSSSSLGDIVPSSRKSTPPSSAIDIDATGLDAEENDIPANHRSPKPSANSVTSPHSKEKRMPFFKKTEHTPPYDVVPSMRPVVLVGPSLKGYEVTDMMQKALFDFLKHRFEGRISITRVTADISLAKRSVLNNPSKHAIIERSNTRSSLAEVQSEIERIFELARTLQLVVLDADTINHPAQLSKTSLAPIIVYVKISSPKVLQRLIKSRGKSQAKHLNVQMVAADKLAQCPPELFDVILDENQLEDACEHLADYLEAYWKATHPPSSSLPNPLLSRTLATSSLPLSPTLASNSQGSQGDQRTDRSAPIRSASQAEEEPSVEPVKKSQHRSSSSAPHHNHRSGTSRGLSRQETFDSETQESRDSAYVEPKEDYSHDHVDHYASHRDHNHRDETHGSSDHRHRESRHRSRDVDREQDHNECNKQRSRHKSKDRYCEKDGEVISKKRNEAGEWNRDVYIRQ
T2 sequence (P54289 25-956 partner limits assumed): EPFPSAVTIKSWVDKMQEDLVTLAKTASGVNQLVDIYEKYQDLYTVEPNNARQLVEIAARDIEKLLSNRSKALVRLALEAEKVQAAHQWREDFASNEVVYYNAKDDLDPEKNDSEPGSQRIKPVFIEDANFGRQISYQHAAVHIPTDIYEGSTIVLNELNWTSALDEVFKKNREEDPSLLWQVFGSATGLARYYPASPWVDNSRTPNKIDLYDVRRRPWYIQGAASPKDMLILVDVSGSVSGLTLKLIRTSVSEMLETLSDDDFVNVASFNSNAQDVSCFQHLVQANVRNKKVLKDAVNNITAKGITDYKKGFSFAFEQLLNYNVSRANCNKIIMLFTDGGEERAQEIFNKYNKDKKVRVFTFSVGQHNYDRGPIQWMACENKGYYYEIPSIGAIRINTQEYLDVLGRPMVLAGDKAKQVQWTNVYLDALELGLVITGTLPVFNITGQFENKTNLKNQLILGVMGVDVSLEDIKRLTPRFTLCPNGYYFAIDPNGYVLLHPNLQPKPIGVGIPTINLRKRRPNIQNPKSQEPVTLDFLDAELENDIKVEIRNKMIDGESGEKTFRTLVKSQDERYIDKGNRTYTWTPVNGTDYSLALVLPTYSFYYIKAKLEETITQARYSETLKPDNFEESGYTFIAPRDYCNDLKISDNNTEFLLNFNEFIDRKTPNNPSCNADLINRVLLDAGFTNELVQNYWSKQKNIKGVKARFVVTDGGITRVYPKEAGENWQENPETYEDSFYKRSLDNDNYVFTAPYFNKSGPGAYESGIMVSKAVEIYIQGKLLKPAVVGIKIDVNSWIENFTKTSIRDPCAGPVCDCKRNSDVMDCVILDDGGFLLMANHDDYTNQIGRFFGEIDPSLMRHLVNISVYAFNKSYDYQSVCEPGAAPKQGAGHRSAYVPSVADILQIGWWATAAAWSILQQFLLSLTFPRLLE
T2 sequence (P54289 957-1103 partner limits assumed): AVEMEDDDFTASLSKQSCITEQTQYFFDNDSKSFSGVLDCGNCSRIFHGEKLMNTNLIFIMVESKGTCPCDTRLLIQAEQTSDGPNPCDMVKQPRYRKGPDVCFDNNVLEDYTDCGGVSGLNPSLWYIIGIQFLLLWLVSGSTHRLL

O=C1NCc2c1ncnc2-c1cc(-c2cc(Cl)cc(OC(F)(F)F)c2)n(-c2cccnc2)n1 [Compound A, 4-[5-[3-Chloro-5-(trifluoromethoxy)phenyl]-1-(pyridin-3-yl)-1H-pyrazol-3-yl]-5,6-dihydro-7H-pyrrolo[3,4-d]pyrimidin-7-one]
interaction with ion channels of Kav [1]: do not interact with other ion channels of Nav, Kav, and Cav substantially
interaction with ion channels of Cav [2]: do not interact with other ion channels of Nav, Kav, and Cav substantially
stability in aqueous and physiological fluids and organic solvents [3]: stable
stability of dose formulations in bath solution ([3]; several hours at room temperature): no observations indicating any instability
exposure on split dosing ([4]; 100 mg/kg as 2 x 50 mg/kg 8 hours apart): small increase in exposure
test item related findings ([4]; 30, 100 and 2 x 50 mg/kg, 10 days): No clear and consistent test item related findings
exposure on dose increase ([4]; 30 to 100 mg/kg, 10 days): did not reveal a further increase in exposure
